Our source for the relative viability values is the supplement of paper PMC10307832.

What all share (test): relative viability (nuclei count vs DMSO), 5 days (fraction); higher = more cells survive
Compound in assay [1]: CC[C@H](Nc1ncnc2[nH]cnc12)c1nc2cccc(F)c2c(=O)n1-c1ccccc1 [Idelalisib] + CCNC(=O)c1noc(-c2cc(C(C)C)c(O)cc2O)c1-c1ccc(CN2CCOCC2)cc1 [Luminespib] (partner 0.01 µM)
The procedure, abridged: (§1)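 After 5 days of treatment, lung cancer cells in 1536-well plates were fixed and stained in a single step (final 0.05% Triton X-100, 1% formaldehyde, 1 ug/ml Hoechst) and their nuclei counted on 4× images. Treatment had been applied by pin tool the day after seeding as one drug alone or as a fixed anchor-drug dose with five library-drug doses (not always all listed) in √10 steps. Relative viability is the nuclei count of treated wells divided by that of vehicle wells, and values are medians of duplicate plates.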

Compound in assay [2]: CC[C@H](Nc1ncnc2[nH]cnc12)c1nc2cccc(F)c2c(=O)n1-c1ccccc1 [Idelalisib] + N=C(N)NC(=N)NCCc1ccccc1 [Phenformin] (partner 250 µM)
The procedure, abridged: as §1

Compound in assay [3]: Nc1nc2[nH]cc(CCc3ccc(C(=O)N[C@@H](CCC(=O)O)C(=O)O)cc3)c2c(=O)[nH]1 [Pemetrexed] + Cc1nc(NC(=O)N2CCC[C@H]2C(N)=O)sc1-c1ccnc(C(C)(C)C(F)(F)F)c1 [Alpelisib] (partner 2 µM)
In short, it runs like this: as §1

Compound in assay [4]: Nc1nc2[nH]cc(CCc3ccc(C(=O)N[C@@H](CCC(=O)O)C(=O)O)cc3)c2c(=O)[nH]1 [Pemetrexed] + O=C(CCCCCCC(=O)Nc1ccccc1)NO [Vorinostat] (partner 1 µM)
The procedure, abridged:
as §1

With BEN, the relative viability in assay [1] (first compound 0.04 µM) is 0.333; in assay [1] (first compound 0.1265 µM), 0.459; in assay [1] (first compound 0.4 µM) it was 0.232; in assay [1] (first compound 1.265 µM), 0.416; in assay [1] (first compound 4 µM) it was 0.242; in assay [2] (first compound 0.04 µM) it was 0.277. The relative viability in assay [2] (first compound 0.1265 µM) came to 0.27; in assay [2] (first compound 0.4 µM) it was 0.262; in assay [2] (first compound 1.265 µM), 0.28; in assay [2] (first compound 4 µM) it was 0.281; in assay [3] (first compound 0.002 µM) it was 1.09; in assay [3] (first compound 0.006325 µM), 1.02. Also, the relative viability in assay [3] (first compound 0.02 µM) was 1.03; in assay [3] (first compound 0.06325 µM), 0.989; in assay [3] (first compound 0.2 µM), 0.774; in assay [4] (first compound 0.002 µM), 0.6; in assay [4] (first compound 0.006325 µM), 0.578; in assay [4] (first compound 0.02 µM) it was 0.587. In addition, the results for the relative viability in assay [4] (first compound 0.06325 µM) and in assay [4] (first compound 0.2 µM) were 0.573 and 0.555, respectively.
Turning to LXF-289, the relative viability was determined as 0.776 in assay [1] (first compound 0.04 µM); 0.575 in assay [1] (first compound 0.1265 µM); 0.663 in assay [1] (first compound 0.4 µM); 0.815 in assay [1] (first compound 1.265 µM); 0.439 in assay [1] (first compound 4 µM); 0.506 in assay [2] (first compound 0.04 µM). Besides, the relative viability in assay [2] (first compound 0.1265 µM) worked out at 0.518; in assay [2] (first compound 0.4 µM) it was 0.46; in assay [2] (first compound 1.265 µM), 0.534; in assay [2] (first compound 4 µM), 0.496; in assay [3] (first compound 0.002 µM), 1.04; in assay [3] (first compound 0.006325 µM), 1. In addition, the relative viability stood at 1.07 in assay [3] (first compound 0.02 µM); 1.05 in assay [3] (first compound 0.06325 µM); 0.969 in assay [3] (first compound 0.2 µM); 0.625 in assay [4] (first compound 0.002 µM); 0.758 in assay [4] (first compound 0.006325 µM); 0.795 in assay [4] (first compound 0.02 µM). Also, the relative viability was found to be 0.74 in assay [4] (first compound 0.06325 µM) and 0.718 in assay [4] (first compound 0.2 µM).
As to NCI-H358, the relative viability in assay [1] (first compound 0.04 µM) was determined as 0.284; in assay [1] (first compound 0.1265 µM) it was 0.587; in assay [1] (first compound 0.4 µM), 0.347; in assay [1] (first compound 1.265 µM), 0.235; in assay [1] (first compound 4 µM), 0.159; in assay [2] (first compound 0.04 µM) it was 0.386. In addition, the relative viability in assay [2] (first compound 0.1265 µM) stood at 0.327; in assay [2] (first compound 0.4 µM), 0.225; in assay [2] (first compound 1.265 µM) it was 0.338; in assay [2] (first compound 4 µM) it was 0.313; in assay [3] (first compound 0.002 µM), 0.917; in assay [3] (first compound 0.006325 µM) it was 0.79. For the same cell line, the relative viability in assay [3] (first compound 0.02 µM) came to 0.538; in assay [3] (first compound 0.06325 µM) it was 0.314; in assay [3] (first compound 0.2 µM), 0.27; in assay [4] (first compound 0.002 µM), 0.616; in assay [4] (first compound 0.006325 µM), 0.655; in assay [4] (first compound 0.02 µM), 0.414. For the same cell line, the relative viability in assay [4] (first compound 0.06325 µM) worked out at 0.167; in assay [4] (first compound 0.2 µM), 0.122.
Turning to NCI-H1993, the relative viability in assay [1] (first compound 0.04 µM) is 0.778; in assay [1] (first compound 0.1265 µM), 0.889; in assay [1] (first compound 0.4 µM), 0.779; in assay [1] (first compound 1.265 µM), 1.06; in assay [1] (first compound 4 µM) it was 0.822; in assay [2] (first compound 0.04 µM) it was 0.57. The relative viability in assay [2] (first compound 0.1265 µM) was determined as 0.484; in assay [2] (first compound 0.4 µM) it was 0.554; in assay [2] (first compound 1.265 µM), 0.59; in assay [2] (first compound 4 µM), 0.486; in assay [3] (first compound 0.002 µM) it was 0.731; in assay [3] (first compound 0.006325 µM), 0.645. Also, the relative viability was 0.661 in assay [3] (first compound 0.02 µM); 0.754 in assay [3] (first compound 0.06325 µM); 0.785 in assay [3] (first compound 0.2 µM); 0.832 in assay [4] (first compound 0.002 µM); 0.863 in assay [4] (first compound 0.006325 µM); 0.701 in assay [4] (first compound 0.02 µM). Moreover, the relative viability is 0.67 in assay [4] (first compound 0.06325 µM) and 0.612 in assay [4] (first compound 0.2 µM).
Turning to NCI-H727, the relative viability in assay [1] (first compound 0.04 µM) is 0.327; in assay [1] (first compound 0.1265 µM), 0.345; in assay [1] (first compound 1.265 µM) it was 0.333; in assay [1] (first compound 4 µM) it was 0.451; in assay [2] (first compound 0.04 µM) it was 0.582; in assay [2] (first compound 0.1265 µM), 0.56. For the same cell line, the relative viability in assay [2] (first compound 1.265 µM) turned out to be 0.607; in assay [2] (first compound 4 µM) it was 0.448; in assay [3] (first compound 0.002 µM), 0.577; in assay [3] (first compound 0.006325 µM), 0.534; in assay [3] (first compound 0.02 µM), 0.596; in assay [3] (first compound 0.06325 µM) it was 0.678. In addition, the relative viability in assay [3] (first compound 0.2 µM) turned out to be 0.594; in assay [4] (first compound 0.002 µM) it was 1.18; in assay [4] (first compound 0.006325 µM), 1.12; in assay [4] (first compound 0.02 µM) it was 1.26; in assay [4] (first compound 0.06325 µM), 1.16; in assay [4] (first compound 0.2 µM) it was 1.06.
LOU-NH91: the relative viability in assay [1] (first compound 0.04 µM) came to 0.281; in assay [1] (first compound 0.1265 µM) it was 0.321; in assay [1] (first compound 0.4 µM), 0.327; in assay [1] (first compound 1.265 µM) it was 0.33; in assay [1] (first compound 4 µM) it was 0.315; in assay [2] (first compound 0.04 µM), 0.712. Further, the relative viability is 0.725 in assay [2] (first compound 0.1265 µM); 0.573 in assay [2] (first compound 0.4 µM); 0.492 in assay [2] (first compound 1.265 µM); 0.643 in assay [2] (first compound 4 µM); 0.711 in assay [3] (first compound 0.002 µM); 0.757 in assay [3] (first compound 0.006325 µM). Moreover, the relative viability amounted to 0.745 in assay [3] (first compound 0.02 µM); 0.632 in assay [3] (first compound 0.06325 µM); 0.529 in assay [3] (first compound 0.2 µM); 0.878 in assay [4] (first compound 0.002 µM); 0.906 in assay [4] (first compound 0.006325 µM); 1.02 in assay [4] (first compound 0.02 µM). Besides, the relative viability in assay [4] (first compound 0.06325 µM) came out at 0.591; in assay [4] (first compound 0.2 µM) it was 0.395.
As for NCI-H1975, the relative viability in assay [1] (first compound 0.04 µM) turned out to be 0.216; in assay [1] (first compound 0.1265 µM), 0.157; in assay [1] (first compound 0.4 µM) it was 0.16; in assay [1] (first compound 1.265 µM) it was 0.213; in assay [1] (first compound 4 µM) it was 0.207; in assay [2] (first compound 0.04 µM), 0.426. The relative viability was 0.418 in assay [2] (first compound 0.1265 µM); 0.369 in assay [2] (first compound 0.4 µM); 0.408 in assay [2] (first compound 1.265 µM); 0.357 in assay [2] (first compound 4 µM); 0.63 in assay [3] (first compound 0.006325 µM); 0.704 in assay [3] (first compound 0.02 µM). In addition, the relative viability in assay [3] (first compound 0.06325 µM) is 0.535; in assay [3] (first compound 0.2 µM), 0.4; in assay [4] (first compound 0.002 µM), 0.666; in assay [4] (first compound 0.006325 µM) it was 0.721; in assay [4] (first compound 0.02 µM), 0.699; in assay [4] (first compound 0.06325 µM), 0.588. For the same cell line, the relative viability in assay [4] (first compound 0.2 µM) is 0.308.
